“Also recorded” adds a separate entry of the source.
Assays:
LC3 = assay: Western immunoblotting, LC3 (lipidated form); assay type: in vivo, rat; conditions: aged rats; oral 8-AG 5 mg/kg/day, 6 weeks
Method: (§1) Western immunoblotting: Following the testing paradigms, rats were deeply anesthetized, bladders as well as the proximal urethra were removed, and one half of each preparation was homogenized using Lysing Matrix D in a FastPrep 24 instrument (MP Biomedicals, Solon, Ohio) in HBSS [5 mM KCl, 0.3 mM KH2PO4, 138 mM NaCl, 4 mM NaHO3, 0.3 mM Na2HCO3, 0.3 mM Na2HPO4, 5.6 mM glucose, and 10 mM Hepes, pH 7.4 containing a complete protease inhibitor cocktail (1 tablet/10 ml, ROCHE®, Indianapolis, Ind.) and a phosphatase inhibitor cocktail (SIGMA®, 1:100)]. After centrifugation (13000 rpm; 15 min at 4° C.), the membrane protein fraction was prepared by suspending the membrane pellets in lysis buffer containing 0.3 M NaCl, 50 mM Tris-HCl (pH 7.6), and 0.5% Triton X-100 and the same concentration of protease inhibitors as above. The suspensions were incubated on ice and centrifuged (13000 rpm; 15 min at 4° C.). The protein concentrations of the combined supernatants were determined using the PIERCE® BCA protein assay (THERMO SCIENTIFIC®, Rockford, Ill.). […] As a loading control, total protein per sample was determined using Bio-Rad Stain Free SDS-PAGE gel technology. UV-activated protein fluorescence was imaged on a CHEMIDOC® MP (BIO-RAD®). […] The volume (intensity) of each protein species was determined and normalized to total protein using Image Lab software (BIO-RAD®).

α-SMA = assay: Western immunoblotting, α-SMA; assay type: in vivo, rat; conditions: aged rats; oral 8-AG 5 mg/kg/day, 6 weeks
Method: as §1, with “software (BIO-RAD®). […]” for “software (BIO-RAD®).”

CYP-treated rats [1] = assay: Voiding analysis in cyclophosphamide (CYP) cystitis model; assay type: in vivo, rat; conditions: CYP (75 mg/kg i.p.) female Sprague Dawley rats; oral 8-AG 5 mg/kg/day starting one week prior to CYP
Method: (§2) Animals: Female Sprague Dawley rats were employed in this example (Charles River; Wilmington, Mass.). Three groups of animals were included. Group 1 received an i.p. injection of saline and was used as a control; groups 2 and 3 received an i.p. injection of cyclophosphamide (CYP, SIGMA-ALDRICH®, St Louis, Mo., day 0, 3, 6, sacrifice day 8, 75 mg/kg, i.p.) with group 3 treated with oral 8-AG (5 mg/kg/day; starting one week prior to CYP). CYP induced bladder inflammation and is a well-established pre-clinical model for BPS/IC.
Voiding Analysis: Untreated, CYP-treated, and 8-AG-treated CYP rats were placed in metabolic cages (24 hr; once per week) for the duration of the study. The light cycle was from 7:00 AM to 7:00 PM, and food and water were provided ad libitum. […] Data were averaged for 24 h and analyzed for 12-h periods during the day (7:00 AM-7:00 PM) and night (7:00 PM-7:00 AM). Voiding frequency, total voided volume, and volume per void were analyzed. Voiding frequency was calculated as the number of voiding events per hour during 24 hr and during the 12-hr day and 12-hr night periods. Volume per void, which defines bladder capacity, was calculated as an average of the voids occurring during these periods.

CYP-treated rats [2] = assay: Images of intact bladders in CYP cystitis model (inflammation and bleeding); assay type: in vivo, rat; conditions: CYP (75 mg/kg i.p.) female Sprague Dawley rats; oral 8-AG 5 mg/kg/day starting one week prior to CYP
Method: as §2

[3] = Jackson et al., J Pharmacol Exp Ther 2016; cited from earlier work
PNPase = PNPase (Homo sapiens, UniProt P00491); conditions: Jackson et al., J Am Heart Assoc 2018; cited from earlier work
Chain of PNPase (P00491 whole entry): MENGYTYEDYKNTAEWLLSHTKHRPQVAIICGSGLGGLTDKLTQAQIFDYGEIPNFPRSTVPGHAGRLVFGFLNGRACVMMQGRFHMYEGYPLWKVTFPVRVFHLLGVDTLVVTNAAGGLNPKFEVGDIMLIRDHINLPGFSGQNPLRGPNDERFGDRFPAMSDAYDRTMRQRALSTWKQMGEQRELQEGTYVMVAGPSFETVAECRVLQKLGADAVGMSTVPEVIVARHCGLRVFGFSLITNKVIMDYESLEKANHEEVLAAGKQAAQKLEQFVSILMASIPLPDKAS

SMILES: Nc1nc2[nH]c(N)nc2c(=O)[nH]1 [8-AG, 8-Aminoguanine]
- LC3 (lipidated form) expression in detrusor (LC3): partially restores expression toward younger state; also recorded: trend toward reversal
- α-SMA expression in detrusor (α-SMA): increasing expression toward younger state; also recorded: normalized; also recorded: restored these biomarkers to that of a younger state
- α-SMA expression in urethra (α-SMA): increasing expression toward younger state; also recorded: normalized to a younger state
- intercontraction interval (CYP-treated rats [1]): attenuates
- voiding frequency (CYP-treated rats [1]): attenuates
- bladder inflammation and bleeding (images of intact bladders) (CYP-treated rats [2]): nearly abolished
- diuresis [3]: induce
- glucosuria [3]: induce
- natriuresis [3]: induce
- potassium excretion [3]: reduce
- PNPase inhibition (mechanism of diuresis, natriuresis, glucosuria) (PNPase): inhibiting

Reference: patent US20220054494A1, “METHODS FOR TREATING BLADDER AND URETHRA DYSFUNCTION AND DISEASE” (University of Pittsburgh - Of the Commonwealth System of …, priority 2019, published 2022)
